Common to all, as to assay type: functional
Experiment [1] is filed under the species Mus musculus. Kind of experiment: Compound was evaluated for the percentage inhibition of the control PGF2-alpha response at a concentration of 3 x 10 e-4 M in isolated mouse ileum.
The species named for experiment [2] is Mus musculus. The experiment is described as follows: Compound was evaluated for the percentage inhibition of PGF2-alpha-induced contractions at a concentration of 10 e-5 M in isolated mouse ileum; NI=No inhibition.
For experiment [3], the species on record is Mus musculus. The experiment is described as follows: Compound was evaluated for the percentage inhibition of PGF2-alpha-induced contractions at a concentration of 10 e-5 M in isolated mouse ileum.
Experiment [4] is filed under the species Mus musculus. Kind of experiment: Antispasmodic activity evaluated as percentage reduction in the contractile response of the estrous uterus in mouse.

Molecules are shown by their SMILES. Where “and” joins values, the source holds several entries; their conditions need not be identical. Identical values can stand only once. Calls of active or inactive are those of the source. No cut-off for these calls is given here.

In turn, `CCN(CC)CCC[C@H](CCl)Nc1ccnc2cc(Cl)ccc12` returned an inhibition at 300 µM in the experiment filed under Mus musculus [1] (Mus musculus, Ileum) of 17%. In addition, the inhibition entry in the experiment filed under Mus musculus [2] was “inactive”. On to `CCN(CC)CCC[C@@H](CCl)Nc1ccnc2cc(Cl)ccc12.Cl`, for which the inhibition at 10 µM in the experiment filed under Mus musculus [3] stood at 28%. The Inhibition in the experiment filed under Mus musculus [1] was 55% and 32%. `CCN(CC)CCC[C@H](C)Nc1ccnc2cc(Cl)ccc12`: the Reduction in the experiment listed under Mus musculus [4] is recorded as 50%.
